Measurements as given in US11464250B2, “Natural compound sweetener and preparation method therefor” (HUNAN HUACHENG BIOTECH INC., priority 2017, dated 2022).

How the values were obtained:
[1] = times that of saccharose, cited from earlier work
[2] = electronic tongue tasting, intelligent gustation analysis system TS-5000Z; conditions: 1% (mass concentration) saccharose as standard; FIG. 1-FIG. 3
Excerpt: Method II: an intelligent gustation analysis system TS-5000Z, namely an electronic tongue is adopted to perform tasting, an artificial fat membrane sensor technology, of which an operating principle is similar to that of human tongue gustation cells, is employed, basic gustatory sensory indexes such as bitter taste, astringent taste, sour taste, saline taste, fresh taste, sweet taste and raw material original taste of samples such as foods or drugs can be objectively and digitally evaluated, and meanwhile, a bitter aftertaste, an astringent aftertaste and a fresh aftertaste (abundance) can be further analyzed. Drawing is performed according to test data, and electronic tongue tasting test data graphs of the natural compound sweeteners in the embodiments 1-3 are separately shown in FIG. 1-FIG. 3.

Compound: C[C@H](CC[C@@H](O[C@@H]1O[C@H](CO[C@@H]2O[C@H](CO)[C@@H](O)[C@H](O)[C@H]2O)[C@@H](O)[C@H](O)[C@H]1O[C@@H]1O[C@H](CO)[C@@H](O)[C@H](O)[C@H]1O)C(C)(C)O)[C@H]1CC[C@@]2(C)[C@@H]3CC=C4[C@@H](CC[C@H](O[C@@H]5O[C@H](CO[C@@H]6O[C@H](CO)[C@@H](O)[C@H](O)[C@H]6O)[C@@H](O)[C@H](O)[C@H]5O)C4(C)C)[C@]3(C)[C@H](O)C[C@]12C [Mogroside V]
- maximum sweetness relative to saccharose [1]: 420 times

Compound: C=C1C[C@@]23CC[C@H]4[C@@](C)(CCC[C@@]4(C)C(=O)O[C@@H]4O[C@H](CO)[C@@H](O)[C@H](O)[C@H]4O)[C@@H]2CC[C@]1(O[C@@H]1O[C@H](CO)[C@@H](O)[C@H](O[C@@H]2O[C@H](CO)[C@@H](O)[C@H](O)[C@H]2O)[C@H]1O[C@@H]1O[C@H](CO)[C@@H](O)[C@H](O)[C@H]1O)C3 [rebaudioside A]
- electronic tongue taste profile [2]: partial to a herbal medicine taste, namely a raw-material original taste is very strong

Compound: rebaudioside C [Reb C]
- sweetness relative to saccharose ([1]; from CN104144605A discussion): 300 times
